Eight molecules from patent US12139475B2, “2-oxindole compounds” (CHEMOCENTRYX, INC., priority 2016, dated 2024) can be followed below.

The test concerns the target T1, CCR(9) (Homo sapiens, UniProt P51686).
T1 construct: MOLT-4 cells were collected by centrifugation at 400×g at room temperature, then suspended at 50 million/ml in human serum; host or cells: MOLT-4
T1 sequence (P51686 1-369): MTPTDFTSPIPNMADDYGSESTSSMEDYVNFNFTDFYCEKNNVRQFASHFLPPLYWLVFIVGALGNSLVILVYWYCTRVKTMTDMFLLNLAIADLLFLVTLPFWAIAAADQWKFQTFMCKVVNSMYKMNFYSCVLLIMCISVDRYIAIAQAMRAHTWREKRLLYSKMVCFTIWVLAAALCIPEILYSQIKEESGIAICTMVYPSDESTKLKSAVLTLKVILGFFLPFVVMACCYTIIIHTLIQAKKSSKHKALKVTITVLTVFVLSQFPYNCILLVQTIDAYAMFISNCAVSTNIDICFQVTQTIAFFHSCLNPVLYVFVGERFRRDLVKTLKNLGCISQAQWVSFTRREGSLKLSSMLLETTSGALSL
Nature of the test: Serum chemotaxis assay (MOLT-4 cells, TECK-induced migration, ChemoTX). The settings on record: MOLT-4 cells in human serum, migration to recombinant human TECK, 90 minutes at 37° C. Format: cell-based. The protocol:
MOLT-4 cells were obtained from the American Type Culture Collection (Manassas, VA) and cultured in RPMI tissue culture medium supplemented with 10% fetal calf serum (FCS) in a humidified 5% CO2 incubator at 37° C. Recombinant human chemokine proteins TECK was obtained from R&D Systems (Minneapolis, MN). ChemoTX™ chemotaxis microchambers were purchased from Neuro Probe (Gaithersburg, MD). CyQUANT™ cell proliferation kits were purchased from Molecular Probes (Eugene, Oregon). Calcium indicator dye Fluo-4 AM was purchased from Molecular Devices (Mountain View, CA).
A serum chemotaxis assay was used to determine the efficacy of potential receptor antagonists at blocking the migration mediated through chemokine receptors, such as CCR(9). This assay was performed using the ChemoTX® microchamber system with a 5-μm pore-sized polycarbonate membrane. MOLT-4 cells were collected by centrifugation at 400×g at room temperature, then suspended at 50 million/ml in human serum, containing 50 mM HEPES (final pH of 7.2). The compound being tested or an equivalent volume of its solvent (DMSO) was then added to the cell/serum mixture at a final DMSO concentration of 0.125% (v/v), and this mixture was then incubated together at 37° C. for one hour. Separately, recombinant human TECK was diluted with chemotaxis buffer (HBSS+0.1% BSA), generally spanning a range from 0.1 nM to 500 nM, after which 29 μl of diluted chemokine was placed in the lower wells of the ChemoTX® plate. The 5-μm (pore size) polycarbonate membrane was placed onto the plate, and 20 μL of the cell/compound mixture was transferred onto each well of the membrane. The plates were incubated at 37° C. for 90 minutes, after which the polycarbonate membranes were removed and 5 μl of the DNA-intercalating agent CyQUANT (Invitrogen, Carlsbad, CA) was added to the lower wells. The amount of fluorescence, corresponding to the number of migrated cells, was measured using a Spectrafluor Plus plate reader (TECAN, San Jose, CA).
The A2 values were calculated from the following equation, comparing the efficacy of the test compound with that of the DMSO-only control at equi-active chemokine levels: Log(A2)=log[drug(M)]−log[(A′/A)−1] where A reflects the potency of the agonist in the absence of antagonist and A′ reflects the potency of the agonist in the presence of antagonist at a given concentration of drug ([drug(M)]). In Vivo Efficacy Models for Human IBD

As for `CC1(C)CCc2cc(C3(C)C(=O)N(c4ccc(CC(=O)O)cc4)c4ccc(Cl)cc43)ccc2O1` (stereo in doubt) [2-[4-[(3R)-5-chloro-3-(2,2-dimethylchroman-6-yl)-3-methyl-2-oxo-indolin-1-yl]phenyl]acetic acid], the “Chemotaxis A2” value was “+++ (100 nM > A2)”. For the molecule `CC(C)(C)c1ccc(C2(C)C(=O)N(c3cccc(C(=O)O)c3)c3ccc(Cl)cc32)cc1` (stereo in doubt) [3-[(3R)-3-(4-tert-butylphenyl)-5-chloro-3-methyl-2-oxo-indolin-1-yl]benzoic acid], the “Chemotaxis A2” value is on record as “+++ (100 nM > A2)”. The value for `CC1(C)CCc2cc(C3(C)C(=O)N(c4cccc(C(=O)O)c4)c4ccc(Cl)cc43)ccc2O1` (stereo in doubt) [3-[(3R)-5-chloro-3-(2,2-dimethylchroman-6-yl)-3-methyl-2-oxo-indolin-1-yl]benzoic acid] was “+++ (100 nM > A2)”; that for `CC1(C)CCc2cc(C3(C)C(=O)N(Cc4ccc(C(=O)O)cc4)c4ccc(Cl)cc43)ccc2O1` (stereo in doubt) [4-[[(3R)-5-chloro-3-(2,2-dimethylchroman-6-yl)-3-methyl-2-oxo-indolin-1-yl]methyl]benzoic acid] was “+++ (100 nM > A2)”.

Regarding `Cc1ccc2c(c1)C(C)(c1ccc3c(c1)CCC(C)(C)O3)C(=O)N2c1ccc(C)c(C(=O)O)c1` (stereo in doubt) [5-[(3R)-3-(2,2-dimethylchroman-6-yl)-3,5-dimethyl-2-oxo-indolin-1-yl]-2-methyl-benzoic acid], the “Chemotaxis A2” value is reported as “+++ (100 nM > A2)”. Regarding `COc1ccc(N2C(=O)C(C)(c3ccc4c(c3)CCC(C)(C)O4)c3cc(Cl)ccc32)cc1C(=O)O` (stereo in doubt) [5-[(3R)-5-chloro-3-(2,2-dimethylchroman-6-yl)-3-methyl-2-oxo-indolin-1-yl]-2-methoxy-benzoic acid], the “Chemotaxis A2” value is listed as “+++ (100 nM > A2)”. The value for `Cn1nnn(Cc2ccc(N3C(=O)[C@@](C)(c4ccc5c(c4)CCC(C)(C)O5)c4cc(Cl)ccc43)cc2)c1=O` [(S)-5-chloro-3-(2,2-dimethylchroman-6-yl)-3-methyl-1-(4-((4-methyl-5-oxo-4,5-dihydro-1H-tetrazol-1-yl)methyl)phenyl)indolin-2-one] was “+++ (100 nM > A2)”; that for `CC1(C)CCc2cc([C@]3(C)C(=O)N(c4ccc(Cn5nn[nH]c5=O)cc4)c4ccc(Cl)cc43)ccc2O1` [(S)-5-chloro-3-(2,2-dimethylchroman-6-yl)-3-methyl-1-(4-((5-oxo-4,5-dihydro-1H-tetrazol-1-yl)methyl)phenyl)indolin-2-one] was “+++ (100 nM > A2)”.
